Ends that are not written are not given here.

The record followed here is article PMC6520365, “Structural and functional characterization of the PDZ domain of the human phosphatase PTPN3 and its interaction with the human papillomavirus E6 oncoprotein” (Scientific Reports, 2019).

In this experiment the target is T1, PTPN3-PDZ (Homo sapiens, UniProt P26045).
T1 construct: GST (followed by a TEV cleavage site) (N, cleaved yes); made in house; host or cells: E. coli BL21 Star (DE3)
T1 sequence (P26045 510-582 limits assumed): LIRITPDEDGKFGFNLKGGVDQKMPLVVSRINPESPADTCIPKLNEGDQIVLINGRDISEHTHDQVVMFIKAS
The experiment can be described thus: NMR titration (1H,15N HSQC chemical shift perturbation) of PBM peptide affinity for PTPN3-PDZ. The experiment is classed as binding. As to the method: The affinities of HPV16E6 PBM, HPV18E6 PBM, p38γ PBM and HBVc PBM for PTPN3-PDZ were measured by NMR titration. We followed ^1H, ^15N chemical shift perturbations of PTPN3-PDZ signals in the ^1H-^15N HSQC spectra as a function of increasing concentrations of the PBM peptide to determine the dissociation constant (KD) (Fig. S1). […] The KD values are all in the same tenth-of-micromolar range for the viral PBMs and are close to the one of the cellular partner p38γ. […]
Briefly, the unlabeled peptides (stock solutions ranging from 2.8 to 5.7 mM) at pH 7.5 were added stepwise in a sample initially containing 240–260 μL of ^15N-labeled PTPN3-PDZ at a concentration of 95 or 149 μM. A series of ^1H, ^15N HSQC spectra was recorded for the different titration points. Chemical shift changes were calculated using the free PTPN3-PDZ signals as a reference. Chemical shift differences in the cross-peaks by titration were calculated using the relationship: Δδ = ((ΔδHN)^2 + (0.15 × ΔδN)^2)^0.5 where ΔδHN and ΔδN are changes in the ^1H and ^15N chemical shifts in ppm, respectively. […]

With RQERLQRRETQV [HPV18E6 PBM], the Kd amounted to 37 ± 20 µM.
